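Growth conditions: 96-well plates. Treatment: test compound, 48 hours, 5 concentrations. Analysis: linear interpolation between bracketing concentrations; unreached endpoints set to highest concentration. GI50 is the concentration that inhibits growth by half. TGI marks complete inhibition of growth.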
What was measured:
Test in all cases: NCI tumour cell line growth inhibition, 48 h
A498 renal = system: A498 renal
A549 NSCLC = system: A549 NSCLC
HCT-15 colon = system: HCT-15 colon
HOP-62 NSCLC = system: HOP-62 NSCLC
HT29 colon = system: HT29 colon
MALME-3M melanoma = system: MALME-3M melanoma
OVCAR-3 ovarian = system: OVCAR-3 ovarian
OVCAR-8 ovarian = system: OVCAR-8 ovarian
SR leukemia = system: SR leukemia
U251 CNS = system: U251 CNS

Structure (SMILES)	GI50 (A498 renal) [µM]	TGI (A498 renal) [µM]	GI50 (A549 NSCLC) [µM]	TGI (A549 NSCLC) [µM]	GI50 (HCT-15 colon) [µM]	TGI (HCT-15 colon) [µM]	GI50 (HOP-62 NSCLC) [µM]	TGI (HOP-62 NSCLC) [µM]	GI50 (HT29 colon) [µM]	TGI (HT29 colon) [µM]	GI50 (MALME-3M melanoma) [µM]	TGI (MALME-3M melanoma) [µM]	GI50 (OVCAR-3 ovarian) [µM]	TGI (OVCAR-3 ovarian) [µM]	GI50 (OVCAR-8 ovarian) [µM]	TGI (OVCAR-8 ovarian) [µM]	GI50 (SR leukemia) [µM]	TGI (SR leukemia) [µM]	GI50 (U251 CNS) [µM]	TGI (U251 CNS) [µM]
COC(=O)CCc1c(/C=C2\N=C(c3ccc[nH]3)C=C2OC)[nH]c(C)c1C(=O)OCc1ccccc1	0.289	3.37	0.945	38.7	0.177	1.53	0.303	2	0.138	1.68	0.638	2.12	0.34	1.64	0.432	5.75	0.185	1.72	0.36	2.28
N#CCCn1c(CCC(=O)Nc2ccc(Cl)cc2Cl)n[nH]c1=S		> 100		> 100		> 100		> 100		> 100		> 100		> 100		> 100		> 100		> 100
COC(=O)[C@]1(C)CC[C@]2(C)CC[C@]3(C)C(=CC(=O)[C@@H]4[C@@]5(C)CCC(=O)NC(C)(C)[C@@H]5CC[C@]43C)[C@@H]2C1	21.4	46.4	32.8	> 100	16.1	> 100	29	> 100	11.9	80.5	18.3	38	15.3	32.7	29.2	> 100	15.5	50.5	23.3	89.3
COc1c(OC2OC(CO)C(O)C(O)C2O)cc2c(c1OC)-c1ccc(OC)c(=O)cc1[C@@H](NC(C)=O)CC2 (stereo not given in full)		> 100		> 100		> 100		> 100		> 100		> 100		> 96.6		> 100		> 100		> 100

Source: PubChem BioAssay (NCI)
